US20220054658A1, “CONJUGATES” (Transfection Holdings Limited, priority 2018, published 2022)
“Also recorded” adds a separate entry of the source.

Assays:
C. elegans = assay: Conjugate uptake in C. elegans (dye and praziquantel conjugates, fluorescence microscopy); format: in vivo, Caenorhabditis elegans; details: 50 μM
Experimental: Nematode Growth Media (NGM) plates containing C. elegans were washed with 1.0-1.5 mL of standard M9 buffer and the washes were collected in an Eppendorf tube. The liquid containing the C. elegans was then spun for 1 min at room temperature at 10,000 rpm. The supernatant was removed, and fresh M9 buffer was added (500 μL) to generate a new stock solution of M9 buffer containing the C. elegans.
A C. elegans suspension (100 μL) was added a defined amount of M9 buffer (determined by the final desired concentration of compound to be tested: 399 μL in the case of the BODIPY tagged derivatives) contained within a separate Eppendorf tube. To this was then added a 25 mM solution of the compound in DMSO (1 μL). The resulting suspension was mixed using a vortex instrument.
The resulting mixture was incubated at room temperature for 2 to 4 h. in the dark (using aluminium foil to screen the tube, which was also stored in a cabinet).
Other samples were incubated overnight. Here, OP50 bacteria (3 μL) were added to the worms for feeding purposes, and the worms were kept in the dark at 20° C.
After the incubation, the tube contents were mixed gently by hand (typically by simple rotation of the tube), so as to achieve a homogenous suspension. A sample of the suspension (250 μL) was taken and mixed with M9 buffer (500 μL). The resulting suspension was placed in a centrifuge and spun at room temperature at 10,000 rpm for 1 min. The supernatant was removed, and the washing process was repeated twice more, each time using further quantities of fresh M9 buffer (500 μL each time). After the final washing sufficient supernatant was removed so as to leave a final sample volume of approximate 30 μL.
A 1.5% agarose solution in water was pre-warmed for 60 to 90 s. in a standard household style microwave (set to Power 4). Two drops of this solution was removed and placed on a glass slide. The glass slide was covered with a second glass slide. After 1 min., the slides were slid carefully apart, with the agarose remaining on one of the slides. Onto this slide was placed an aliquot of the final C. elegans solution (15 to 20 μL). To this was added a 20 mM sodium azide solution (5 μL) to inhibit nematode mobility. Vaseline was then placed around the agarose area before replacing the second slide. The slides were not pressed together.
The nematodes were then analysed using a Zeiss Axiskop 2 Plus microscope with a Hamamatsu Orca-ER (CA 742-95) camera. The images were resolved using OpenLab on a Mac operating system.
Compounds 1-11 were evaluated after 3 h and overnight incubation at a 50 μM concentration using the general uptake protocol described for C. elegans.
In order to compare the ability of a conjugate to improve the uptake of the drug praziquantel, two praziquantel derivatives were generated. Praziquantel was tagged with a BODIPY fluorescent tag (compound 12) and incorporated into a conjugate of the invention (compound 13). Compounds 12 and 13 were evaluated at a concentration of 50 μM using the C. elegans uptake protocol described above for compounds 1-11. Microscopic readings were taken after 3, 24 and 72 h.

L. passim strain PRA-403 = assay: Lotmaria passim parasite uptake test; format: cell-based; details: room temperature, 45 min; for uptake in L. passim (fluorescence intensity, microplate reader): 1 μM and 100 μM
Experimental: 100 mM stock solutions of BODIPY derivatives were prepared with dimethylsulfoxide (DMSO). L passim strain PRA-403 (ATCC) was cultured in modified medium for C. bombi (Tognazzo et al.). The parasite culture was centrifuged, supernatant was removed and 500 μL of L passim medium with compound (final concentration 500, 100, 10 or 1 μM for BODIPY derivatives) or DMSO (0.1%) control was added. Incubated for 45 min at room temperature.
Uptake tests were performed at 1 μM and 100 μM final concentration of CJ-BODIPY derivatives. After incubation at room temperature for 45 min, fluorescence intensities were evaluated using a microplate reader.

P. falciparum = assay: Plasmodium falciparum testing: uptake by infected and non-infected red blood cells; format: cell-based; details: 25 μM, 45 minutes, 37° C., synchronised stage and mix-stage cultures
Experimental: Compounds 1, 5, 9, 10 and 11 were tested for uptake in both synchronised stage and mix-stage cultures at 25 μM concentrations.

T. annulata = assay: Theileria annulata testing: uptake; format: cell-based; details: 1 hour, 37° C.
Experimental: T. annulata were cultured using RPMI 1640 with 10% Albumax II (Thermo-Fisher) serum. A standard hemocytometer was used to calculate the concentration of cells in the parent culture. […] For each compound and concentration to be tested, 2 mL of the culture were centrifuged at 1,000 rpm for 5 minutes. The medium was removed before the cells were resuspended in 950 μL of complete medium containing the compound to be tested at the desired concentration. This was prepared from a 100 mM stock solution of compound in DMSO. Once the cells were resuspended they were transferred to a 5 well plate (1 mL capacity per well). They were then incubated for 1 hour at 37° C. in an atmosphere of 5% CO2 in air. After the incubations were complete the contents of each well were transferred to a 10 mL centrifuge tube. Cold RPMI 1640 (Thermofisher) or HBSS added to obtain a volume of 5 mL. The suspension was then centrifuged at 1,000 rpm and at 4° C. for 5 minutes. […] After the final washing the pellet of cells was resuspended in a minimum amount of RPMI 1640 and then spotted onto a glass slide. The slide was then covered with a cover slip and analysed using Olympus BX60 UV microscope system with a Spot RT3 camera and Spot Image software with a FITC fluorescent filter.

[1] = test system: M. tuberculosis strain H37Rv; assay: Uptake test in M. tuberculosis; format: cell-based, Mycobacterium tuberculosis; details: 50 μg/mL (~80 μM), room temperature, 45 min
[2] = test system: mixed culture of wild type nematodes (roundworms, tape worms and flukes); assay: Nematode testing: mixed culture of wild type nematodes; format: in vivo; details: 20 h incubation
Experimental: A mixed culture of wild type nematodes (roundworms, tape worms and flukes), obtained from Massey University's sheep farm, were incubated for 20 h with compound 14, compound and commercially available ivermectin B1a, as a control. The protocol followed is the same as the C. elegans protocol used previously.

[3] = test system: gastrointestinal system (crop, midgut and rectum) of adult honey bees; assay: Honey bee gut uptake test; parameters: species or system Apis mellifera; details: 100 μM, 33° C., 45 min
Experimental: Honey bee (A. mellifera) hives were obtained and allowed to feed ab libitum spring to autumn. During the winter period, pollen mixed with 50% (v/v) sucrose was added to the honey bee hives in order to provide sufficient food. Honey bees were dissected and gastrointestinal system was removed including the crop, midgut and rectum, and added immediately to 500 μL of the delivery vehicle to be tested sample diluted with PBS at 100 μM final concentration or DMSO (0.1%) control. The mixture was incubated for 45 min at 33° C.
The gastrointestinal system (crop, midgut and rectum) of adult honey bees was extracted, and incubated with derivatives 1, 2, 8 and 11 at 100 μM and 33° C. for 45 min.

B. bovis Texas strain = assay: Short-term uptake test in B. bovis infected RBCs (confocal microscopy); details: 25 μM, 37° C., 45 min, ~5% PPE
Experimental: The parasite culture was centrifuged and washed once with GIT medium. RBC's were pellet down, and 20 μl infected RBC mixture (10 μl packed infected RBC+10 μl GIT) was prepared. Then, 180 μl GIT medium with compound the compound to be evaluated (final concentration 25 μM for BODIPY derivatives and 100 μM for phiLOV derivatives) or DMSO (0.1%)/PBS control was added. The samples were incubated for 45 min at 37° C. (Samples were stained 1 μg/mL diluted Hoechst 33342 in GIT medium). After incubation, the samples were centrifuged and the pellet was washed with GIT medium (3×). A final solution of 50% haematocrit infected RBC mixture was transferred to slides to be observed by confocal laser microscopy (Nikon A1).
Uptake experiments were performed by incubating the parasite (˜5% Parasitized Erythrocytes (PPE)) with each derivative at 25 μM and 37° C. for 45 min. After incubation, the fluorescence intensities were calculated from confocal microscope images.
The phiLOV double mutant (R475G, K476C) was used to generate derivatives P11, P1, P8, and P3 which were tested for uptake in B. bovis Texas strain using phiLOV as a control. The derivatives and the control were incubated at 100 μM and 37° C. for 45 min. After incubation, the samples were analysed under confocal microscopy using Hoeschst 33342 (Thermofisher) as co-stain.

Structure (SMILES)	uptake: location of fluorescence in C. elegans (C. elegans; 3 h incubation)	uptake: location of fluorescence in C. elegans (C. elegans; 20 h / overnight incubation)	uptake in L. passim (fluorescence intensity, microplate reader) (L. passim strain PRA-403)	uptake compared to other compounds (C. elegans; 20 h incubation)	uptake by infected and non-infected red blood cells (P. falciparum)	uptake in T. annulata (T. annulata)	uptake in M. tuberculosis (fluorescence intensity / microscopy) [1]	concentration at which nematodes showed paralysis [2] [µM]	uptake compared to other compounds (C. elegans; 3 h incubation)	fluorescence in honey bee gut (crop, midgut, rectum) [3]	uptake in L. passim (fluorescence microscopy) (L. passim strain PRA-403; 10 μM)	uptake compared to compound 1 (% less) (B. bovis Texas strain) [%]	uptake in L. passim (fluorescence microscopy) (L. passim strain PRA-403; 500 μM)	fluorescence intensity compared to compound 1 [1]
CC1=CC(C)=[N+]2C1=Cc1ccc(CCCn3cc(CCNC(=O)/C=C\NC(=O)[C@H]4OC(C)(C)OCC4(C)C)nn3)n1[B-]2(F)F [Compound 4, (Z)—N-((((3-[4,4-Difluoro-5,7-dimethyl-4-bora-3a,4a-diaza-s-indacene-3-yl]propyl)-1H-1,2,3-triazol-4-yl)ethylamino)-3-oxoprop-1-enyl)-2,2,5,5-tetramethyl-1,3-dioxane-4-carboxamide]	traces of compound 4 were present in the gut cells of larval stages	fluorescence was detected in the pharynx and the gut cells of the larval stages as well as in the early stage of egg development	one of the lowest amounts of uptake	–	–	–	–	–	–	–	–	–	–	–
CC1=CC(C)=[N+]2C1=Cc1ccc(CCCn3cc(CCNC(=O)CCNC(=O)[C@@H]4OC(C)(C)OCC4(C)C)nn3)n1[B-]2(F)F [Compound 10, (R)—N-((((3-[4,4-Difluoro-5,7-dimethyl-4-bora-3a,4a-diaza-s-indacene-3-yl]propyl)-1H-1,2,3-triazol-4-yl)ethylamino)-3-oxopropyl)-2,2,5,5-tetramethyl-1,3-dioxane-4-carboxamide]	traces of compound 10 were detected in the gut cells and gut lumen of the larvae; also recorded: also visible to a lesser degree in the pharynx of the larvae	fluorescence was visible in the gut cells and in a smaller amount in the pharynx of the larval stages	–	comparable with the enamide compounds showing the least uptake	not taken up to any visible extent	very limited uptake	minimal uptake	–	–	–	–	–	–	–
CC[C@H](C)[C@H]1O[C@]2(CC[C@@H]1C)C[C@@H]1C[C@@H](C/C=C(\C)[C@@H](O[C@H]3C[C@H](OC)[C@@H](O[C@H]4C[C@H](OC)[C@@H](O)[C@H](C)O4)[C@H](C)O3)[C@@H](C)/C=C/C=C3\CO[C@@H]4[C@H](O)C(C)=C[C@@H](C(=O)O1)[C@]34O)O2 [ivermectin B1a, reference compound]	–	–	–	–	–	–	–	50	–	–	–	–	–	–
CC1=CC(C)=[N+]2C1=Cc1ccc(CCCn3cc(CCNC(=O)/C=C\NC(=O)[C@H](O)C(C)(C)CO)nn3)n1[B-]2(F)F [Compound 8, (Z)—N-((((3-[4,4-Difluoro-5,7-dimethyl-4-bora-3a,4a-diaza-s-indacene-3-yl]propyl)-1H-1,2,3-triazol-4-yl)ethylamino)-3-oxoprop-1-enyl)-2,4-dihydroxy-3,3-dimethylbutanamide]	visible in the gut cells and gut lumen and to a lesser extent into the pharynx of larvae; also recorded: In adults, fluorescence was observed in the pharynx, the gut lumen, the gut cells, and eggs	fluorescence was present in the pharynx, gut lumen and gut cells of the larvae; also recorded: In adults, fluorescence was detected in the pharynx, gut lumen and gut cells, but not in the embryos	relatively low uptake	–	–	–	–	–	second largest uptake observed compared to compounds 1 to 7	slight fluorescence in midgut and rectum, but none in the crop	displayed fluorescence surrounding the cell membrane but not in the cytoplasm	–	–	–
CC1=CC(C)=[N+]2C1=Cc1ccc(CCCN=[N+]=[N-])n1[B-]2(F)F [Compound 11, 3-Azido[4,4-difluoro-5,7-dimethyl-4-bora-3a,4a-diaza-s-indacene-3-yl]propane, reference compound]	slight fluorescence after 3 h, focalized in the gut lumen and gut cells	no significant increase in fluorescence even after 20 h incubation	–	–	diffused into every red blood cell (both infected and non-infected)	diffused indiscriminately	–	–	–	showed only autofluorescence	–	90	–	–
CC1=CC(C)=[N+]2C1=Cc1ccc(CCCn3cc(CCNC(=O)/C=C\NC(=O)[C@H]4OC(C)(C)OCC4(C)C)nn3)n1[B-]2(F)F [Compound 2, (Z)—N-((((3-[4,4-Difluoro-5,7-dimethyl-4-bora-3a,4a-diaza-s-indacene-3-yl]propyl)-1H-1,2,3-triazol-4-yl)ethylamino)-3-oxoprop-1-enyl)-2,2,5,5-tetramethyl-1,3-dioxane-4-carboxamide]	traces of compound 2 were observed in the pharynx, gut cells and gut lumen of the larval stages	fluorescence was localised in the gut cells, gut lumen and to a lesser extent within the pharynx of the larvae	highest reading amongst all the compounds tested	–	–	–	preferred over their S counterparts; also recorded: highest fluorescence signals; also recorded: fluorescence is localised at the poles	–	–	slight fluorescence in midgut and rectum, but none in the crop; also recorded: localised on the surface of the gut, but not inside of it	–	90	exhibited fluorescence in the parasite's cytosol, with the derivative forming fluorescence dots	around 2.5 times
